Assay results from patent publication US9586963B2 (GENFIT, priority 2011, dated 2017).
Counter-ions that a name gives are not always drawn. Like-named read-outs stand apart in the source and are kept apart here.

Biological target: T1, Rev-Erb alpha (Homo sapiens, UniProt P20393)
T1 sequence (P20393 284-614 limits assumed): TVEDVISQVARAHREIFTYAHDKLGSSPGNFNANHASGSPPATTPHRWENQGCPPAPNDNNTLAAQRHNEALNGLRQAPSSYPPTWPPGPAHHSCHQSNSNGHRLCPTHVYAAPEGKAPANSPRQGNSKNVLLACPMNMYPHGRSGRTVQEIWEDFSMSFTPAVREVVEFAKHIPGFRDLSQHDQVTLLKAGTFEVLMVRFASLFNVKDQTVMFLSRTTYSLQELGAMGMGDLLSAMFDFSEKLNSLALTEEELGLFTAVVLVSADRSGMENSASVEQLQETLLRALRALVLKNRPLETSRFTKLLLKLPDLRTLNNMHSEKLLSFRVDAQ
Experiment: M2H (mammalian two-hybrid) cellular activation assay of Rev-Erb alpha
Type: cell-based
Settings: for EC50: Gal4-Rev-Erb alpha / VP16-NCoR, luciferase reporter
Description: In this system, Rev-Erb alpha or Rev-Erb beta is expressed as a fusion to the Gal4 DNA-binding domain and the cofactor NCoR is expressed as a fusion to the activation domain of the Herpes Simplex Virus tegument protein VP16. These fusion proteins were included in plasmids at a concentration of 1 μg/μL. The pBS-SK+ vector was added to the preparation to adjust the DNA quantity to a fixed value for each condition.
The transfection mix (Jet-PEI protocol, Polyplus transfection) comprised: • 3 mL of Jet PEI Mix (180 μL Jet-Pei and NaCl at 150 mM) and • 3 mL of the DNA Mix or of the DNA Mix control (wherein the Gal4-Rev-Erb alpha plasmid was replaced by a pGal4phi plasmid).
DNA Mix comprised 1.2 mL of DNA and 1.8 mL of NaCl at 150 mM with, in a T225 flask: • 90 ng of Gal4-Rev-Erb alpha, or 90 ng of Gal4-Rev-Erb beta, • 4500 ng of VP16-NCoR, • 27000 ng of Gal4-RE and • 13410 ng of pBS-SK+. Cells
HEK293 cells were cultured in DMEM (Invitrogen 41965) comprising 10% FBS, P/S, 1% glutamine, 1% pyruvate (Invitrogen 11360) and 1% amino acids (Invitrogen 11140). Cells were then batch co-transfected with plasmid vectors (described in the table above) using as Jet-PEI as reagent (Polyplus) following the protocol specified below.
The 6 mL-transfection mix was transferred in a T225 flask. HEK293 cells were then added at a concentration of 12 Millions of cells for 54 mL of medium (DMEM comprising 10% FBS and 1% P/S). Cells incubated over-night at 37° C. and under 5% CO2.
This cell-based assay is performed using 384-well Greiner white plates (Reference 781080). After the incubation, cells were rinsed with PBS, trypsinized, centrifuged and resuspended in free-serum DMEM without phenol red (Invitrogen 31053). Cells were counted and adjusted to 0.5 Million per mL and plated at a concentration of 10,000 cells in 20 μL per well. They were incubated a minimum of 4 hours at 37° C. under 5% CO2. Cells were treated with 20 μL of the compound to analyze (concentration of 2× diluted in DMEM without FBS containing a maximum of 1% DMSO) and incubated over-night (18 hours, 37° C. and 5% CO2). Each compound has been tested at 6 different concentrations to depict a dose-effect allowing the measure of biochemical parameters such as EC50 and TOP activation (%).
Cells were incubated 30 minutes with 40 μL/well of Steady Glow (Promega) and luminescence was read with TECAN Genios Pro (100 ms/w). Four experiments were carried out for each compound.
Each compound has been tested at 6 different concentrations to depict a dose-effect allowing the measure of biochemical parameters such as EC50 and TOP activation (%).
The mammalian two-hybrid system (M2H) assay consists herein in studying the ability of compounds according to the invention to activate Rev-Erbalpha in cells and thus modulate the interaction with its corepressor. The interaction of the two proteins is assessed with the help of the Luciferase reporter gene. HEK293 cells were transfected with two gene constructions: Gal4-RE VP16-NCoR and Gal4-Rev-Erbalpha or with Gal4-RE, sVP16-NCoR and Gal4-Rev-Erb beta.
The ability of compounds according to the invention of activating Rev-Erbalpha alpha or Rev-Erb beta was assessed in the described cell-based assay. EC50 and TOP activation (%) were measured.

[1] = M2H assay, HEK293 cells, relative to DMSO, at the tested dose, read-out: TOP activation

Row | Compound | EC50 (M2H assay, HEK293 cells) [nM] | Emax [1] [%] | Emax (HEK293, read-out: TOP activation) [%]
1 | CCCOc1ccc(-c2ccc(C(F)(F)F)cc2Oc2ccc3nnc(Cl)n3n2)cn1 [Cpd.4-92, 3-chloro-6-(2-(6-propoxypyridin-3-yl)-5-(trifluoromethyl)phenoxy)-[1,2,4]triazolo[4,3-b]pyridazine hydrochloride] | > 6000 | > 130 | 
2 | CC(C)(C)OC(=O)NCc1ccc(Oc2ccc3nnc(Cl)n3n2)c(-c2ccccc2)c1 [Cpd.4-170, 3-chloro-6-(5-(tertbutyloxycarbonylaminomethyl)biphenyl-2-yloxy)-[1,2,4]triazolo[4,3-b]pyridazine] | 100 to 1000 |  | 
3 | COc1ncc(C)cc1-c1ccc(C(F)(F)F)cc1Oc1nn2c(Cl)nnc2cc1C [Cpd.5-28, 3-chloro-7-methyl-6-((2-(2-methoxy-5-methylpyridin-3-yl))-5-(trifluoromethyl)phenoxy)-[1,2,4]triazolo[4,3-b]pyridazine] | 1000 to 6000 |  | 
4 | NCc1ccc(Oc2ccc3nnc(Cl)n3n2)c(-c2ccccc2)c1 [Cpd.4-171, 3-chloro-6-(5-aminomethylbiphenyl-2-yloxy)-[1,2,4]triazolo[4,3-b]pyridazine, trifluoroacetic acid salt] | > 6000 | > 130 | 
5 | NC(=O)c1cccc(-c2ccc(C(F)(F)F)cc2Oc2ccc3nnc(Cl)n3n2)c1 [Cpd.4-72, 3-chloro-6-(4-trifluoromethyl-3′-aminocarbonyl-biphenyl-2-yloxy)-[1,2,4]triazolo[4,3-b]pyridazine] | 1000 to 6000 |  | 
6 | COc1ccc(-c2ccc(C(F)(F)F)cc2Oc2ccc3nnc(Cl)n3n2)cn1 [Cpd.4-81, 3-chloro-6-(2-(6-methoxypyridin-3-yl)-5-(trifluoromethyl)phenoxy)-[1,2,4]triazolo[4,3-b]pyridazine] | 100 to 1000 |  | 
7 | COc1ncc(-c2ccc(C(F)(F)F)cc2Oc2nn3c(Cl)nnc3c3ccccc23)cn1 [Cpd.5-36, 3-chloro-6-((2-(2-methoxypyrimidin-5-yl))-5-(trifluoromethyl)phenoxy)-[1,2,4]triazolo[3,4-a]phthalazine] | 100 to 1000 |  | 
8 | COc1cccc(-c2cc(F)ccc2Oc2ccc3nnc(Cl)n3n2)c1 [Cpd.4-76, 3-chloro-6-(5-fluoro-3′ methoxy-biphenyl-2-yloxy)-[1,2,4]triazolo[4,3-b]pyridazine] | 100 to 1000 |  | 
9 | FC(F)(F)c1ccc(-c2cncnc2)c(Oc2nn3c(Cl)nnc3c3ccccc23)c1 [Cpd.5-22, 3-chloro-6-(2-(pyrimidin-5-yl)-5-(trifluoromethyl)phenoxy)-[1,2,4]triazolo[3,4-a]phthalazine] | 100 to 1000 |  | 
10 | FC(F)(F)c1ccc(-c2ccccc2)c(Oc2nn3c(Cl)nnc3c3ccccc23)c1 [Cpd.5-1, 3-chloro-6-(4-trifluoromethyl-biphenyl-2-yloxy)-[1,2,4]triazolo[3,4-a]phthalazine] | < 100 |  | 
11 | CCc1ncncc1-c1ccc(C(F)(F)F)cc1Oc1nn2c(Cl)nnc2cc1C [Cpd.5-52, 3-chloro-6-(2-(4-ethylpyrimidin-5-yl)-5-(trifluoromethyl)phenoxy)-7-methyl-[1,2,4]triazolo[4,3-b]pyridazine] | 1000 to 6000 |  | 
12 | Cc1cc2nnc(Cl)n2nc1Oc1cc(C(F)(F)F)ccc1-c1cncnc1 [Cpd.5-29, 3-chloro-7-methyl-6-(2-(pyrimidin-5-yl)-5-(trifluoromethyl)phenoxy)-[1,2,4]triazolo[4,3-b]pyridazine] | 1000 to 6000 |  | 
13 | COc1ncc(-c2ccc(C(F)(F)F)cc2Oc2cc(C)c3nnc(Cl)n3n2)cn1 [Cpd.5-34, 3-chloro-8-methyl-6-((2-(2-methoxypyrimidin-5-yl))-5-(trifluoromethyl)phenoxy)-[1,2,4]triazolo[4,3-b]pyridazine] | 100 to 1000 |  | 
14 | CC(C)c1ncncc1-c1ccc(C(F)(F)F)cc1Oc1ccc2nnc(Cl)n2n1 [Cpd.4-128, 3-chloro-6-((2-(4-isopropylpyrimidin-5-yl))-5-(trifluoromethyl)phenoxy)-[1,2,4]triazolo[4,3-b]pyridazine] | 1000 to 6000 |  | 
15 | CS(=O)(=O)N1CCN(Cc2ccc(Oc3ccc4nnc(Cl)n4n3)c(-c3ccccc3)c2)CC1 [Cpd.4-164, 3-chloro-6-(5-(4-methanesulfonyl-piperazin-1-ylmethyl)biphenyl-2-yloxy)-[1,2,4]triazolo[4,3-b]pyridazine] | 1000 to 6000 |  | 
16 | Clc1nnc2ccc(Oc3ccccc3-c3nccs3)nn12 [Cpd.4-104, 3-chloro-6-(2-(thiazol-2-yl)phenoxy)-[1,2,4]triazolo[4,3-b]pyridazine] | > 6000 | > 130 | 
17 | COc1ncc(-c2ccc(C(F)(F)F)cc2Oc2ccc3nnc(Cl)n3n2)cn1 [Cpd.4-127, 3-chloro-6-((2-(2-methoxypyrimidin-5-yl))-5-(trifluoromethyl)phenoxy)-[1,2,4]triazolo[4,3-b]pyridazine] | 1000 to 6000 |  | 
18 | NCc1ccc(-c2ccccc2)c(Oc2ccc3nnc(Cl)n3n2)c1 [Cpd.4-65, 3-chloro-6-(4-aminomethyl-biphenyl-2-yloxy)-[1,2,4]triazolo[4,3-b]pyridazine] | > 6000 | > 130 | 
19 | Fc1ccc(-c2ccc(C(F)(F)F)cc2Oc2ccc3nnc(Cl)n3n2)cn1 [Cpd.4-87, 3-chloro-6-(2-(6-fluoropyridin-3-yl)-5-(trifluoromethyl)phenoxy)-[1,2,4]triazolo[4,3-b]pyridazine] | 1000 to 6000 |  | 
20 | CS(=O)(=O)Nc1ccc(Oc2ccc3nnc(Cl)n3n2)c(-c2ccccc2)c1 [Cpd.4-173, 3-chloro-6-(5-methylsulfonamidobiphenyl-2-yloxy)-[1,2,4]triazolo[4,3-b]pyridazine] | 1000 to 6000 |  | 
21 | Cc1ccc(-c2ccc(C(F)(F)F)cc2Oc2cc(C)c3nnc(Cl)n3n2)cn1 [Cpd.5-16, 3-chloro-8-methyl-6-(2-(6-methylpyridin-3-yl)-5-(trifluoromethyl)phenoxy)-[1,2,4]triazolo[4,3-b]pyridazine] | 100 to 1000 |  | 
22 | Cc1cc(Oc2cc(C(F)(F)F)ccc2-c2cncnc2C(C)C)nn2c(Cl)nnc12 [Cpd.5-38, 3-chloro-8-methyl-6-((2-(4-isopropylpyrimidin-5-yl))-5-(trifluoromethyl)phenoxy)-[1,2,4]triazolo[4,3-b]pyridazine] | 1000 to 6000 |  | 
23 | O=C(c1ccccc1)c1cc(Cl)ccc1Oc1ccc2nnc(Cl)n2n1 [Cpd.4-42, (5-chloro-2-(3-chloro-[1,2,4]triazolo[4,3-b]pyridazin-6-yloxy)phenyl)(phenyl)methanone] | 1000 to 6000 |  | 
24 | COc1cccc(-c2ccc(C(F)(F)F)cc2Oc2ccc3nnc(Cl)n3n2)c1 [Cpd.4-71, 3-chloro-6-(3′-methoxy-4-trifluoromethyl-biphenyl-2-yloxy)-[1,2,4]triazolo[4,3-b]pyridazine] | 100 to 1000 |  | 
25 | Fc1ccc(Oc2ccc3nnc(Cl)n3n2)c(-c2cccc(CN3CCCCC3)c2)c1 [hydrochloride] | > 6000 |  | > 130
26 | Cc1cc2nnc(Cl)n2nc1Oc1cc(C(F)(F)F)ccc1-c1cccnc1C [Cpd.5-20, 3-chloro-7-methyl-6-(2-(2-methylpyridin-3-yl)-5-(trifluoromethyl)phenoxy)-[1,2,4]triazolo[4,3-b]pyridazine] | 100 to 1000 |  | 
27 | CN(C)Cc1ccc(Oc2ccc3nnc(Cl)n3n2)c(-c2ccccc2)c1 [Cpd.4-63, 3-chloro-6-(5-N,N-dimethylaminomethyl-biphenyl-2-yloxy)-[1,2,4]triazolo[4,3-b]pyridazine] | > 6000 | > 130 | 
